From patent US20130202686A1 (priority 2010, published 2013)
Structures can show the parent of a compound that is named as a salt.

Columns and labels:
[1] = rat, in vivo, sc, 5 mg/kg, 4 h
Experimental: For the bupivacaine hydrochloride liposome prepared in Preparation Example 12 and bupivacaine hydrochloride used alone, a drug dynamics test was conducted. Subcutaneous administration into a back part of a rat was conducted in a dose, in terms of the amount of bupivacaine hydrochloride, as set forth in Table 7. After lapses of 1, 24, 72, 120, and 168 hours from the administration of the bupivacaine hydrochloride liposome composition, and after lapses of 0.5, 4, and 24 hours from the administration of the bupivacaine hydrochloride used alone, back region subcutaneous tissue in the administration site was sampled and subjected to a homogenizing treatment. Subsequently, the homogenized solution was treated, the resultant sample solution was subjected to high performance liquid chromatography determination (UV-visible absorptiometer; measurement wavelength 210 nm), and the concentration of bupivacaine hydrochloride remaining in the back region subcutaneous tissue in the administration site was determined. The retention rate of bupivacaine hydrochloride (used alone) in the administration site was lowered to below 1% in four hours after the administration. […] On the other hand, the bupivacaine hydrochloride liposome gave a profile of sustained release from the administration site, and about 35% of bupivacaine hydrochloride remained on the seventh day from the administration.

[2] = Donepezil Liposome Drug Dynamics 2 (plasma concentration of donepezil hydrochloride); conditions: rat, SC 5 mg/kg
Experimental: (Em) of 385 nm was quantified by high performance liquid chromatography using a fluorophotometer.
Furthermore, for comparison, donepezil used alone was administered subcutaneously into a back part of a rat in a dose of 5 mg/kg. For the donepezil used alone, blood was sampled from a tail vein after lapses of 0.5, 1, 5, 10, 30, 120, 480, 1440, and 2880 minutes from the administration. For the liposome compositions, on the other hand, blood was sampled from a tail vein after lapses of 1, 3, 4, 8, 24, 48, 72, 96, 120, 144, 168, 192, 216, 264, 288, 312, and 336 hours from the administration.

CCCCN1CCCCC1C(=O)Nc1c(C)cccc1C (stereo not drawn) [bupivacaine hydrochloride, Bupivacaine hydrochloride]
retention rate of bupivacaine hydrochloride in the administration site [1]: below 1%

COc1cc2c(cc1OC)C(=O)C(CC1CCN(Cc3ccccc3)CC1)C2 (stereo not drawn) [donepezil hydrochloride, Donepezil hydrochloride]
concentration in blood after 48 hours [2]: below the detection limit | time of maximum concentration in blood [2]: 0.5 h
